# Square brackets hold non-standard residues; d marks the D form. Ends that are not written are not given here. pGlu = O=C1CC[C@@H](C(=O)O)N1
# System: panelists
# Experiment: Attribute perception scores of flavor enhancers in solution (Example 6)
# Format: in vivo, human
# Set-up: key to Metallic / Numbing / Atringent / Salt / Sweet / Sour / Bitter / Umami / Sour, mean evaluation score in solution / Numbing, mean evaluation score in solution / Astringent / Umami FF: 15-point intensity scale, 0 = none, 15 = very strong
# Conditions: for Astringent / Bitter / Flinty/Mineral / Metallic / Numbing / Salt / Sour / Sweet / Umami / Umami FF / Atringent / Mineral/Flinty / Umami/brothy: solution
# Procedure: Descriptive attributes (e.g., taste, flavor and chemical feeling factors) of three use levels of pGlu-Cys (FE-35), pGlu-Cys-Gly (FE-36), pGlu-Cys-Cys (FE-37), pGlu-Cys-Val (FE-38) and pGlu-Val-Cys (UE-30) flavor composition peptides were determined. The three use levels were as follows: 1.0 ppb, 10.0 ppb and 100.0 ppb.
# Data was collected for the attributes of the product in-mouth for the use levels according to the following protocol: • The samples were analyzed for flavor by six to nine members of a panel, trained and experienced in flavor evaluation using the Spectrum™ method. Samples were evaluated across multiple panel sessions. • The strength of each attribute was rated on a 15-point scale, where 0=none and 15=very strong. • This scale incorporates the ability to use tenths of a point and therefore has the potential of 150 scale differentiations. • The scale may be expanded beyond 15 points to include extreme ratings if necessary.
# A summary of the concentrations of NaCl, water and flavor composition peptides in the solution samples is described in table 24.
# The panelists evaluated each sample for the attributes described by table 25.
# [1] = 1.0 to 100 ppb, listed as FE 38
# [2] = 10.0 ppb, mean evaluation score
# [3] = 100.0 ppb, mean evaluation score
# [4] = Concentration 1, MAX, 15-point scale
# [5] = Concentration 1, MEAN, 15-point scale
# [6] = Concentration 1, MIN, 15-point scale
# [7] = Concentration 10, MAX, 15-point scale
# [8] = Concentration 10, MEAN, 15-point scale
# [9] = Concentration 10, MIN, 15-point scale
# [10] = Concentration 100, MAX, 15-point scale
# [11] = Concentration 100, MEAN, 15-point scale
# [12] = Concentration 100, MIN, 15-point scale
substance,measurement,setting,value
[pGlu]-Cys-Val [FE-38],Mineral/Flinty aromatic in solution as the concentration increases,1.0 to 100 ppb,increases very slightly
same,Salt perception level in solution as the concentration increases,1.0 to 100 ppb,increase very slightly in-mouth at 10 ppb
same,Umami aromatic in solution as the concentration increases,1.0 to 100 ppb,increase very slightly in-mouth at 10 ppb
same,Umami feeling factor in solution as the concentration increases,1.0 to 100 ppb,shows no distinct pattern
same,Mineral/Flinty aromatic in solution as the concentration increases,[1],increase very slightly
same,Salt perception level in solution as the concentration increases,[1],increase very slightly
same,Umami aromatic in solution as the concentration increases,[1],increase very slightly
same,Astringent,"1.0 ppb, mean evaluation score",0.0
same,Bitter,"1.0 ppb, mean evaluation score",0.0
same,Flinty/Mineral,"1.0 ppb, mean evaluation score",1.0
same,Metallic,"1.0 ppb, mean evaluation score",0.0
same,Numbing,"1.0 ppb, mean evaluation score",0.0
same,Salt,"1.0 ppb, mean evaluation score",3.1
same,Sour,"1.0 ppb, mean evaluation score",0.0
same,Sweet,"1.0 ppb, mean evaluation score",0.0
same,Umami,"1.0 ppb, mean evaluation score",0.2
same,Umami FF,"1.0 ppb, mean evaluation score",0.7
same,Astringent,[2],0.0
same,Bitter,[2],0.2
same,Flinty/Mineral,[2],1.1
same,Metallic,[2],0.0
same,Numbing,[2],0.0
same,Salt,[2],3.7
same,Sour,[2],0.0
same,Sweet,[2],0.2
same,Umami,[2],0.5
same,Umami FF,[2],1.8
same,Astringent,[3],0.0
same,Bitter,[3],0.2
same,Flinty/Mineral,[3],1.3
same,Metallic,[3],0.0
same,Numbing,[3],0.0
same,Salt,[3],3.7
same,Sour,[3],0.0
same,Sweet,[3],0.2
same,Umami,[3],0.5
same,Umami FF,[3],1.7
same,Atringent,[4],0.0
same,Bitter,[4],0.0
same,Metallic,[4],0.0
same,Mineral/Flinty,[4],1.5
same,Numbing,[4],0.0
same,Salt,[4],3.5
same,Sour,[4],0.0
same,Sweet,[4],0.0
same,Umami,[4],1.0
same,Umami/brothy,[4],1.0
same,Atringent,[5],0.0
same,Bitter,[5],0.0
same,Metallic,[5],0.0
same,Mineral/Flinty,[5],1.0
same,Numbing,[5],0.0
same,Salt,[5],3.1
same,Sour,[5],0.0
same,Sweet,[5],0.0
same,Umami,[5],0.7
same,Umami/brothy,[5],0.2
same,Atringent,[6],0.0
same,Bitter,[6],0.0
same,Metallic,[6],0.0
same,Mineral/Flinty,[6],0.5
same,Numbing,[6],0.0
same,Salt,[6],2.8
same,Sour,[6],0.0
same,Sweet,[6],0.0
same,Umami,[6],0.0
same,Umami/brothy,[6],0.0
same,Atringent,[7],0.0
same,Bitter,[7],0.8
same,Metallic,[7],0.0
same,Mineral/Flinty,[7],1.5
same,Numbing,[7],0.0
same,Salt,[7],4.0
same,Sour,[7],0.0
same,Sweet,[7],1.0
same,Umami,[7],3.0
same,Umami/brothy,[7],1.0
same,Atringent,[8],0.0
same,Bitter,[8],0.2
same,Metallic,[8],0.0
same,Mineral/Flinty,[8],1.1
same,Numbing,[8],0.0
same,Salt,[8],3.7
same,Sour,[8],0.0
same,Sweet,[8],0.2
same,Umami,[8],1.8
same,Umami/brothy,[8],0.5
same,Atringent,[9],0.0
same,Bitter,[9],0.0
same,Metallic,[9],0.0
same,Mineral/Flinty,[9],0.8
same,Numbing,[9],0.0
same,Salt,[9],3.0
same,Sour,[9],0.0
same,Sweet,[9],0.0
same,Umami,[9],0.0
same,Umami/brothy,[9],0.0
same,Atringent,[10],0.0
same,Bitter,[10],0.8
same,Metallic,[10],0.0
same,Mineral/Flinty,[10],1.5
same,Numbing,[10],0.0
same,Salt,[10],4.0
same,Sour,[10],0.0
same,Sweet,[10],1.0
same,Umami,[10],3.8
same,Umami/brothy,[10],1.0
same,Atringent,[11],0.0
same,Bitter,[11],0.2
same,Metallic,[11],0.0
same,Mineral/Flinty,[11],1.3
same,Numbing,[11],0.0
same,Salt,[11],3.7
same,Sour,[11],0.0
same,Sweet,[11],0.2
same,Umami,[11],1.7
same,Umami/brothy,[11],0.5
same,Atringent,[12],0.0
same,Bitter,[12],0.0
same,Metallic,[12],0.0
same,Mineral/Flinty,[12],0.8
same,Numbing,[12],0.0
same,Salt,[12],3.5
same,Sour,[12],0.0
same,Sweet,[12],0.0
same,Umami,[12],0.5
same,Umami/brothy,[12],0.0

# Reference: US10856562B2, “Flavor composition and edible compositions containing same” (MARS, INCORPORATED, priority 2013, dated 2020)
